In patent publication US12678437B2, “Use of Cyclo-HisPro (CHP) for lowering blood pressure” (NOVMETAPHARMA CO., LTD., priority 2020, dated 2026):

Experiments:
VE-cadherin = VE-cadherin protein expression (Western blot) in angiotensin II-treated HUVEC cells; type: cell-based, Human; conditions: HUVEC cells treated with Ang II and CHP, versus Ang II-treated control; corrected by β-actin
Method: (§1) Human umbilical vein endothelial cells (HUVEC, CRL-1730) were obtained from the American Type Culture Collection (ATCC), and EBM-2 basal medium and EGM-2 MV microvascular endothelial cell growth medium SingleQuots supplements were purchased from Lonza.
(§2) HUVEC cells were cultured in EBM-2 medium supplemented with EGM-2 MV SingleQuots supplements at 37° C. and 5% CO2 conditions. The medium was replaced every 2 to 3 days, and subculture was performed at 70 to 80% confluency.
(§3) HUVEC cells treated with angiotensin II and CHP were placed in 500 uL of RIPA buffer containing protease and phosphatase inhibitors, and then pulverized by using IKA's T10 homogenizer. […] The supernatant was collected and the protein concentration was measured by BCA quantitation, and the same amount of samples was separated by using the Bolt TM protein gel electrophoresis system, and then transferred to a nitrocellulose membrane. […] After washing 3 times for 10 minutes with TBST, the expression level was measured by reacting with ECL. The size of the appearing band was quantified by using the ImageJ program and corrected by dividing the size value of each band by the size value of the β-actin band. Statistical significance was analyzed by using Student's t-test statistical method with angiotensin II-treated control group (Ang II) (*p<0.05, […], ***p<0.0005).

⅚ nephrectomy rats [1] = experiment: Prophylactic (pre-treatment) blood pressure control in ⅚ nephrectomy rats; type: in vivo; conditions: ⅚ nephrectomy SD rats; oral 35 mg/kg every other day for 8 weeks from 3 days before nephrectomy; tail artery; SHAM 127.8, disease control (Nx) 196.2
Source text: 1-1. Construction of ⅚ Nephrectomy Model and Cyclo-HisPro Administration
The kidney is involved in water and sodium metabolism and is closely associated with the renin-angiotensin system, and thus, kidney disease itself, that is, glomerulitis or renal failure, may cause hypertension and play an important role in the development of essential hypertension. Chronic renal failure through nephrectomy in rats leads to continued progression of hypertension, uremia, proteinuria and glomerulosclerosis.
After pre-bringing 7-week-old SD rats purchased from Koatech Co., Ltd. for more than one week, the experimental group underwent surgery in two stages. […]
In order to reduce the error range of blood pressure measurement, the experimental animals were calibrated in the holder of a blood pressure meter (BP-2000 blood pressure analysis system, rat platform 2-channel, Visitech Systems, Apex, NC, USA) and then acclimatized in a heating chamber at 37° C. for 30 minutes, and the systolic blood pressure was measured at least 5 times in the tail artery to obtain the average value. […]

⅚ nephrectomy rats [2] = experiment: Therapeutic (post-treatment) blood pressure control in ⅚ nephrectomy rats; type: in vivo; conditions: ⅚ nephrectomy SD rats; oral 35 mg/kg every other day for 6 weeks from 2 weeks after nephrectomy; tail artery; SHAM 127.8, disease control (Nx) 196.2
Method: After pre-bringing 7-week-old SD rats purchased from Koatech Co., Ltd. for more than one week, the experimental group underwent surgery in two stages. After general anesthesia, incision was performed along the midline of the abdomen to separate the left kidney from the adrenal glands and surrounding tissues, and after holding the renal blood vessel with forceps to prevent bleeding, the upper ⅓ and lower ⅓ of the left kidney were removed, and after 1 week, general anesthesia was performed again, and the entire right kidney was removed to complete a ⅚ nephrectomy model.
In order to reduce the error range of blood pressure measurement, the experimental animals were calibrated in the holder of a blood pressure meter (BP-2000 blood pressure analysis system, rat platform 2-channel, Visitech Systems, Apex, NC, USA) and then acclimatized in a heating chamber at 37° C. for 30 minutes, and the systolic blood pressure was measured at least 5 times in the tail artery to obtain the average value. The significance of the experimental results was verified by performing t-test for each group of the disease control group (Nx), the normal control group and the Cyclo-HisPro administration group, and there was a statistically significant difference (**p<0.005, ***p<0.0005, ****p<0.00005).
2-1. Construction of ⅚ Nephrectomy Model and Administration of Cyclo-HisPro […]

[3] = system: AT2R (angiotensin II type 2 receptor); experiment: AT2R protein expression (Western blot) in angiotensin II-treated HUVEC cells; type: cell-based, Human; conditions: HUVEC cells treated with Ang II and CHP, versus Ang II-treated control; corrected by β-actin
Method: as §1, §2, §3

eNOS gene = eNOS gene expression (real-time PCR) in SVEC4-10 cells; type: cell-based, mouse; conditions: CHP 0, 10, 100 and 250 μM, serum-free medium, 2 hours, corrected by β-actin
Method: SVEC4-10 (CRL-2181), which is a mouse endothelial cell line, was obtained from the American Type Culture Collection (ATCC), and RPMI-1640 medium and FBS were purchased from Hyclone.
SVEC4-10 cells were cultured at 37° C. and 5% CO2 conditions by using RPMI-1640 medium containing 10% FBS and 1% penicillin/streptomycin, and subculture was performed every 2 days.
SVEC4-10 cells were placed in a 6-well plate at 5×10^5 cells and cultured for 24 hours. CHP was treated at concentrations of 0, 10, 100 and 250 μM in serum-free medium, respectively, and then it was cultured at 37° C. and 5% CO2 conditions for 2 hours. Thereafter, the medium was removed, and it was washed once with cold PBS and then immediately dissolved using NucleoZOL.
For RNA extraction, RNA was extracted according to the manufacturer's total RNA isolation protocol by using NucleoZOL (MACHEREY-NAGEL), and 1 μg of RNA was subjected to reverse transcription polymerase chain reaction to synthesize cDNA by using iScript cDNA synthesis kit (Bio-Rad). The synthesized cDNA was analyzed by real-time PCR using iQ SYBR Green Supermix (Bio-Rad) by using the primer set of the eNOS gene.
Each gene expression value was corrected by dividing by the expression value of β-actin, which is a housekeeping gene. Statistical significance was analyzed by the Student's t-test statistical method (*p<0.05).

[4] = system: AT1R (angiotensin II type I receptor); experiment: AT1R protein expression (Western blot) in angiotensin II-treated HUVEC cells; type: cell-based, Human; conditions: HUVEC cells treated with Ang II and CHP, versus Ang II-treated control; corrected by β-actin
Method: as §1, §2, §3

HMVEC-L cells = experiment: NO production (DAF-FM DA fluorescence) in HMVEC-L cells; type: cell-based, Human; conditions: CHP 0, 1, 10, 100 and 500 μM, serum-free medium, 2 hours, versus control not treated with CHP
Method: Human lung microvascular cells (HMVEC-L, CC2527) were obtained from the American Type Culture Collection (ATCC), and EBM-2 basal medium and EGM-2 MV microvascular endothelial cell growth medium SingleQuots supplements were purchased from Lonza.
HUVEC-L cells were cultured in EBM-2 medium supplemented with EGM-2 MV SingleQuots at 37° C. and 5% CO2 conditions. The medium was replaced every 2 to 3 days, and subculture was performed at 70 to 80% confluency.
5×10^4 cells were placed in a black 96-well plate, incubated for 24 hours and treated with CHP at concentrations of 0, 1, 10, 100 and 500 μM in serum-free medium, respectively, and cultured at 37° C. and 5% CO2 conditions for 2 hours. DAF-FM DA (DAF-FM Diacetate; Invitrogen) at a concentration of 5 μM was added and further incubated for 30 minutes, and it was washed once with PBS and observed with a fluorescence microscope at FITC wavelength. Photographs were taken at the same exposure time, and the fluorescence intensity of each cell was measured by using the ImageJ tool. Statistical significance was analyzed by one-way ANOVA statistical method, and comparison with the control group which was not treated with CHP was analyzed by Dunnett's test (****p<0.0001).

O=C1N[C@@H](Cc2cnc[nH]2)C(=O)N2CCC[C@@H]12 [Cyclo-HisPro]
VE-cadherin protein expression (VE-cadherin): statistically significantly increased | systolic blood pressure (⅚ nephrectomy rats [1]): 156.7 mmHg | systolic blood pressure (⅚ nephrectomy rats [2]): 171.6 mmHg | AT2R protein expression [3]: tended to increase | expression of the eNOS gene (eNOS gene): significantly increased | AT1R protein expression [4]: statistically significantly decreased | NO production (intensity of DAF-FM DA fluorescence) (HMVEC-L cells): significantly increased
